Records with an inconclusive call do not appear. Activity calls are given as the source filed them. How the calls were made is not given here.
biological target: Tyrosine-protein phosphatase YopH [Yersinia enterocolitica]; assay: potency against Yersinia YopH phosphatase – biochemical, 10-point dose range, dose response (AID 1261); conditions: YopH phosphatase enzymatic assay, IC50, 3 runs

SMILES | IC50
COc1ccc(NC2=C(NCCO)C(=O)c3ccccc3C2=O)cc1 | > 50 µM (inactive)
CC1=C(C)C(=O)C(CCCCC#CCCCC#CCO)=C(C)C1=O | > 50 µM (inactive)
CCN(CC)c1ccc(/C=N/Nc2ccc(C)cc2)c(O)c1 | > 50 µM (inactive)
CCN(CC)c1ccc(/C=N/Nc2cccc(C)c2)c(O)c1 | > 50 µM (inactive)

same assay, conditions: YopH phosphatase enzymatic assay, IC50, 3 runs; inhibition; at 50 µM; stronger effect = higher value

SMILES | inhibition
O=C1CC(N(O)c2ccccc2)C(=O)N1Cc1ccccc1 (configuration not stated) | -4.47%
CCO/C=C1\C(=O)N(c2ccccc2)C(=O)c2ccccc21 | 39.1%
COc1ccc(NC2=C(NCCO)C(=O)c3ccccc3C2=O)cc1 | 20.2%
CCN(CC)c1ccc(NC(=O)c2cccc(OC)c2)c(C)c1 | -4.28%
Clc1ccc(C2=CSC3=Nc4cccc5cccc(c45)N23)cc1 | 13.3%
CC1=C(C)C(=O)C(CCCCC#CCCCC#CCO)=C(C)C1=O | 0.676%
COc1cccc(-c2nc(CS(=O)(=O)CC(=O)N3CCc4ccccc4C3)c(C)o2)c1 | -0.295%
CCN(CC)c1ccc(/C=N/Nc2ccc(C)cc2)c(O)c1 | 9.55%
CC1CCN(CCC(=O)N2CCCc3c2c(=O)oc2ccc(O)cc32)CC1 | -1.24%
O=c1cc(CN2CCN(c3ccccc3F)CC2)c2cc(O)c(-c3ccccc3)cc2o1 | 4.58%
COc1ccc(-n2nc3ccccc3n2)cc1 | -5.75%
CCCCCCCC1=CC2=CC(=O)C(C)(OC(C)=O)C(=O)C2=CN1CCc1ccccc1 (configuration not stated) | -7.04%
COc1ccc(/C=N/NC(=O)C(C)n2cnc3ccccc3c2=O)cc1OC (configuration not stated) | 8.51%
COc1ccc2cc(-c3cc(C(=O)OCC(=O)NC4CCS(=O)(=O)C4)c4ccccc4n3)ccc2c1 (configuration not stated) | 3.98%
Cc1ccc(NC2=C(N3CCOCC3)C(=O)c3ccccc3C2=O)cc1 | 18%
CCOC(=O)c1oc2ccc(Br)cc2c1CSc1nnc(C)s1 | -12.1%
CCN(CC)c1ccc(C=Nc2ccccc2)c(O)c1 | 17.6%
CC(C(=O)N1CCCc2c1c(=O)oc1ccc(O)cc21)N1CCc2ccccc2C1 (configuration not stated) | 0.0785%
Cc1onc(-c2ccccc2)c1C(=O)NCc1ccccn1 | -11.6%

SMILES | inhibition
O=S(=O)(c1ccc2ccccc2c1)N1CCC(c2nc(-c3ccncc3)no2)CC1 | -14.8%
Cc1ccc(N2C(=O)[C@@H]3[C@H](C2=O)C2c4ccccc4C=CN2[C@@H]3C(=O)c2ccco2)c(C)c1 (some centres not stated) | 20.7%
COc1ccc(NC(=O)/C(=C/c2cccnc2)NC(=O)c2cccs2)cc1 | -16.6%
COc1ccc2c(c1)c(=O)cc(C)n2CC(=O)NCc1ccco1 | -3.64%
O=C1C(Nc2ccccc2)=C(N2CCCCC2)C(=O)c2ccccc21 | 41.9%
CCc1cc[n+](C2=C([O-])c3ccccc3C(=O)/C2=N\S(=O)(=O)c2cccs2)cc1 | 2.75%
CCN(CC)CCCNC(=O)Cc1c(C(=O)O)n(C)c2ccccc12 | -8.3%
O=C(O[C@@H]1OC2COC(=O)c3cc(O)c(O)c(O)c3-c3c(cc(O)c(O)c3O)C(=O)O[C@@H]([C@H]1O)[C@@H]2O)c1cc(O)c(O)c(O)c1 | -0.367%
COc1cc(NCCCCCCCN)c2ncccc2c1 | 56.5%
COC(=O)C1C(C(C)C)N(c2ccccc2)OC1(C)O (configuration not stated) | -0.943%
CCOC(=O)c1ccc(NS(=O)(=O)c2cc(-c3nnnn3C(C)C)ccc2OC)cc1 | -7.2%
Nc1cccc(C2=Nc3cccc4cccc(c34)N2)c1 | 75.9%
Cc1ccc(C(c2sc3nc(C)nn3c2O)N2CCOCC2)cc1 (configuration not stated) | -10.3%
Cn1c(COc2ccccc2)nnc1SCc1nc2ccccc2[nH]1 | -3.78%
Cc1ccc(C(C[N+](=O)[O-])c2c(C)[nH]n(-c3ccccc3)c2=O)cc1 (configuration not stated) | -20.8%
CCOc1cc(CNc2ccc(N3CCCC3)cc2)cc(Cl)c1OC | -6.54%
CCO/C=C1/C(=O)N(Cc2ccccc2)C(=O)c2ccccc21 | 49.7%
Nc1c(NCc2ccccc2F)c(=O)[nH]c(=O)n1Cc1ccccc1 | 33.1%
CCN(CC)c1ccc(/C=N/Nc2cccc(C)c2)c(O)c1 | 9.95%

Source: PubChem BioAssay AID1261 (University of Pittsburgh Molecular Library Screening Center, 2008)
